According to patent US20020002171A1, “Materials and methods for killing nematodes and nematode eggs” (priority 2000, published 2002):

System: Caenorhabditis elegans
Experiment: C. elegans L1 nematicidal dose response in 96-well plates, 5 day visual score (Example 2; same procedure for Example 7, Table 3)
Assay type: in vivo
Parameters: key to 5 Day Visual Score V1 / 5 Day Visual Score V2 / 5 Day Visual Score V3 / 5 Day Visual Score V4 / 5 Day Visual Score V6 / 5 Day Visual Score V5 / Initial HTS Run Visual Score / Follow-up HTS Run Visual Score: Dead: only stiff L1s (no movement); Dead (L4): worms are dead, but at a later larval stage; majority of worms are L1 (based on size) worms move when plate is tapped; majority of worms are L2 (based on size); majority of worms are L3 (based on size); majority of worms are L4 (based on size); AD: majority of worms are adult; #AD: 5 adult worms or less; B!: sterile (0-25 progeny); B: low broodsize (25-100 progeny); ˜B: moderate broodsize (100-250 progeny); <: reduced broodsize (250-500 progeny); OK: no effect (˜1000+ progeny)
In short: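 L1 larvae, 20 per well in NGM with 1% E. coli HB101 and antibiotic/antimycotic, exposed to six 3-fold dilutions from 70 μM down to 0.3 μM (1.4% DMSO at top). Held at 20° C; viability scored visually under 100× dissecting microscope on day 5.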

[1] = 2.6 μM, C. elegans L1, scored day 5
[2] = 7.8 μM, C. elegans L1, scored day 5
[3] = 23.3 μM, C. elegans L1, scored day 5
[4] = 70 μM, C. elegans L1, scored day 5
[5] = 0.3 μM, C. elegans L1, scored day 5
[6] = dose response, dilution V1, day 5
[7] = dose response, dilution V3, day 5
[8] = dose response, dilution V4, day 5
[9] = dose response, dilution V5, day 5
[10] = dose response, dilution V6, day 5
[11] = dose response, dilution V2, day 5

Row | SMILES | Follow-up HTS Run % Run [%] | Follow-up HTS Run mOD [mOD] | Initial HTS Run % Run [%] | Initial HTS Run Visual Score | Initial HTS Run mOD [mOD] | 5 Day Visual Score V1 [6] | 5 Day Visual Score V3 [7] | 5 Day Visual Score V4 [8] | 5 Day Visual Score V5 [9] | 5 Day Visual Score V6 [10] | 5 Day Visual Score V2 [11] | also measured
1 | CCOc1cccc(C2ON=C(c3ccccc3OCC)C2C(=O)NCc2ccc(OC(F)(F)F)cc2)c1 (stereo not drawn) [AKC 125] | – | – | – | – | – | – | – | – | – | – | – | 5 Day Visual Score V4 [1]: L2; 5 Day Visual Score V3 [2]: L2; 5 Day Visual Score V2 [3]: L2/Dead(L4); 5 Day Visual Score V1 [4]: L2/Dead(L3)
2 | CCOc1ccc(C2ON=C(c3ccc(N(C)C)cc3)C2C(=O)NCCc2ccc(F)cc2)cc1 (stereo not drawn) [AKC 123] | – | – | – | – | – | – | – | – | – | – | – | 5 Day Visual Score V6 [5]: #AD/˜B; 5 Day Visual Score V1 [4]: L1
3 | OCCN(CCO)c1nc(NCc2ccc(C(F)(F)F)cc2)ns1 [compound 254] | 113 | 182 | 105 | Dead(L3) | 116 | Dead(L3) | < (reduced broodsize (250-500 progeny)) | OK (no effect (˜1000+ progeny)) | OK (no effect (˜1000+ progeny)) | OK (no effect (˜1000+ progeny)) | – | Follow-up HTS Run Visual Score: L2 - Dead L3
4 | Fc1ccc(CCNc2nsc(N3CCN(c4cccc(C(F)(F)F)c4)CC3)n2)cc1 [compound 225] | 107 | 172 | 114 | – | 125 | – | ˜B (moderate broodsize (100-250 progeny)) | OK (no effect (˜1000+ progeny)) | OK (no effect (˜1000+ progeny)) | OK (no effect (˜1000+ progeny)) | – | –
5 | COc1ccc(CNc2nsc(N3CCN(c4ccc(F)cc4)CC3)n2)cc1 [compound 271] | 109 | 175 | 101 | L4/AD/B | 111 | Dead | – | < (reduced broodsize (250-500 progeny)) | OK (no effect (˜1000+ progeny)) | < (reduced broodsize (250-500 progeny)) | – | –
6 | CCCCCCCCCCNc1nsc(N(CC)C2CCCCC2)n1 [compound 276] | 116 | 187 | 116 | Dead | 128 | Dead | – | OK (no effect (˜1000+ progeny)) | OK (no effect (˜1000+ progeny)) | OK (no effect (˜1000+ progeny)) | Dead | Follow-up HTS Run Visual Score: Dead
7 | OC1CCN(c2nc(NCc3ccccc3)ns2)CC1 [compound 262] | 106 | 171 | 110 | L3/L4/AD/B! | 121 | L4/#AD/B! | OK (no effect (˜1000+ progeny)) | OK (no effect (˜1000+ progeny)) | OK (no effect (˜1000+ progeny)) | OK (no effect (˜1000+ progeny)) | < (reduced broodsize (250-500 progeny)) | –
8 | CCCCCCCCCCCCCCCCCCN(C)c1nc(NCCC(c2ccccc2)c2ccccc2)ns1 [compound 288] | 82 | 132 | 105 | L3/L4/1AD/B | 116 | L1 | OK (no effect (˜1000+ progeny)) | OK (no effect (˜1000+ progeny)) | OK (no effect (˜1000+ progeny)) | OK (no effect (˜1000+ progeny)) | B (low broodsize (25-100 progeny)) | Follow-up HTS Run Visual Score: L4/AD/B!
9 | O=C(Nc1ccc(Br)cc1)NC1CCC(c2nc(-c3ccccc3)no2)CC1 (stereo not drawn) [AKC 114] | – | – | – | – | – | – | – | – | – | – | – | 5 Day Visual Score V6 [5]: ˜B (moderate broodsize (100-250 progeny)); 5 Day Visual Score V4 [1]: L3/Dead(L; 5 Day Visual Score V3 [2]: L3; 5 Day Visual Score V2 [3]: L3/Dead(L4); 5 Day Visual Score V1 [4]: Dead
10 | CC1CCN(c2nc(NCc3ccc(C(F)(F)F)cc3)ns2)CC1 [compound 247] | 105 | 169 | 91 | – | 100 | – | OK (no effect (˜1000+ progeny)) | OK (no effect (˜1000+ progeny)) | OK (no effect (˜1000+ progeny)) | OK (no effect (˜1000+ progeny)) | ˜B (moderate broodsize (100-250 progeny)) | –
11 | CN(Cc1ccccc1)c1nc(NCc2ccccc2)ns1 [compound 328] | 121 | 195 | 120 | – | 132 | – | – | – | – | – | – | 5 Day Visual Score V1 (dose response, dilution V1, 5 day): L1; 5 Day Visual Score V2 (dose response, dilution V2, 5 day): L1; 5 Day Visual Score V5 (dose response, dilution V5, 5 day): < (reduced broodsize (250-500 progeny))
12 | CCN(CC)C(=O)C1CCCN(c2nc(NCc3ccccc3)ns2)C1 (stereo not drawn) [compound 265] | 111 | 178 | 108 | – | 119 | – | OK (no effect (˜1000+ progeny)) | OK (no effect (˜1000+ progeny)) | OK (no effect (˜1000+ progeny)) | OK (no effect (˜1000+ progeny)) | OK (no effect (˜1000+ progeny)) | –
13 | CC1CCN(c2nc(NCc3ccccc3)ns2)CC1 [compound 261] | 96 | 155 | 96 | L3/L4/AD/B! | 106 | Dead | OK (no effect (˜1000+ progeny)) | OK (no effect (˜1000+ progeny)) | OK (no effect (˜1000+ progeny)) | OK (no effect (˜1000+ progeny)) | – | –
14 | FC(F)(F)c1cccc(N2CCN(c3nc(NCc4ccccc4)ns3)CC2)c1 [compound 266] | 124 | 200 | 110 | – | 121 | Dead | – | OK (no effect (˜1000+ progeny)) | OK (no effect (˜1000+ progeny)) | OK (no effect (˜1000+ progeny)) | – | –
15 | Cc1ccc(-c2noc(C3CCC(CNC(=O)Nc4ccc(OC(F)(F)F)cc4)CC3)n2)cc1C (stereo not drawn) [AKC 112] | – | – | – | – | – | – | – | – | – | – | – | 5 Day Visual Score V6 [5]: OK (no effect (˜1000+ progeny)); 5 Day Visual Score V5 (0.9 μM, C. elegans L1, scored day 5): #AD/˜B
16 | Cc1cccc(C)c1N1CCN(c2nsc(N3CCC(O)CC3)n2)CC1 [compound 218] | 78 | 125 | 91 | 1AD/B! | 100 | Dead | – | OK (no effect (˜1000+ progeny)) | OK (no effect (˜1000+ progeny)) | OK (no effect (˜1000+ progeny)) | Dead | Follow-up HTS Run Visual Score: Dead
